These results are taken from BindingDB's records for doi:10.1021/jm000181f (Deakin University, 2001).

Assay [1] can be described thus: Dissociation constant of [3H]DPCPX binding to adenosine A1 receptor (AR) at 200 nM.
The nature of assay [2]: Dissociation constant of [3H]DPCPX binding to adenosine A1 receptor (AR) at 0.05 nM.
A short description of assay [3]: Dissociation constant of [3H]DPCPX binding to adenosine A1 receptor (AR) at 5 nM.
Assay [4] in a line: Dissociation constant of [3H]-DPCPX binding to adenosine A1 receptor (AR) at 0.1 nM.
Assay [5] is described as follows: Dissociation constant of [3H]DPCPX binding to adenosine A1 receptor (AR) at 100 nM.
Assay [6] is described as follows: Dissociation constant of [3H]-DPCPX binding to adenosine A1 receptor(AR) at 0.05 nM.
Assay [7] is described as follows: Dissociation constant of [3H]DPCPX binding to adenosine A1 receptor(AR) at 0.1 nM.

Each structure is given as a SMILES string. pKd: −log10 of the molar value.

Broadly, the pKd is −log10 of the Kd, conventionally taken in molar units. Read a high pKd as a small Kd. In assay [1], `CCCn1c(=O)c2[nH]c(C3CCCCC3)nc2n(CCCCCc2ccc(S(=O)(=O)F)cc2)c1=O` [4-[5-(8-Cyclohexyl-2,6-dioxo-1-propyl-1,2,6,7-tetrahydro-purin-3-yl)-pentyl]-benzenesulfonyl fluoride] had a pKd of 9.09.

`CCCn1c(=O)c2[nH]c(C3CCCCC3)nc2n(CCCNC(=O)c2ccc(S(=O)(=O)F)cc2)c1=O` [4-[3-(8-Cyclohexyl-2,6-dioxo-1-propyl-1,2,6,7-tetrahydro-purin-3-yl)-propylcarbamoyl]-benzenesulfonyl fluoride]: the negative-log Kd (pKd) in assay [2] was 9.55; in assay [3], 9.43; in assay [4], 9.57; in assay [5], 9.47.

Consider `CCCn1c(=O)c2[nH]c(C3CCCC3)nc2n(CCCNC(=O)c2ccc(S(=O)(=O)F)cc2)c1=O` [4-[3-(8-Cyclopentyl-2,6-dioxo-1-propyl-1,2,6,7-tetrahydro-purin-3-yl)-propylcarbamoyl]-benzenesulfonyl fluoride], for which the pKd is 9.59 in assay [6] and 9.62 in assay [7].

`CCCn1c(=O)c2[nH]c(C3CCCCC3)nc2n(Cc2ccc(S(=O)(=O)F)cc2)c1=O` [4-(8-Cyclohexyl-2,6-dioxo-1-propyl-1,2,6,7-tetrahydro-purin-3-ylmethyl)-benzenesulfonyl fluoride]: the pKd in assay [1] was 9.49.

Consider `CCCn1c(=O)c2[nH]c(C3CCCCC3)nc2n(CCCc2ccc(S(=O)(=O)F)cc2)c1=O` [4-[3-(8-Cyclohexyl-2,6-dioxo-1-propyl-1,2,6,7-tetrahydro-purin-3-yl)-propyl]-benzenesulfonyl fluoride], for which, in assay [1], the negative logarithm of the Kd (pKd) is 9.43.
